# “Also recorded” adds a separate entry of the source. Where two headings read alike, the source gives them in different places.
# Columns and labels:
# hRUP25 = hRUP25 (Homo sapiens, UniProt Q8TDS4); experiment: Inhibition of forskolin stimulated cAMP accumulation in stable CHO cells (adenylyl cyclase assay); format: cell-based; conditions: for inhibition of forskolin stimulated cAMP / agonist or not (in words): CHO cells expressing hRUP25
# hRUP38 = target: T1, hRUP38 (Homo sapiens, UniProt P49019); experiment: Inhibition of forskolin stimulated cAMP in stable CHO cells (adenylyl cyclase assay); format: cell-based
# T1 construct: The full length hRUP38 was cloned by PCR using hRUP38 specific primers; expressed in transfected cells
# Excerpt: (§1) A Flash Plate™ Adenylyl Cyclase kit (New England Nuclear; Cat. No. SMP004A) designed for cell-based assays can be modified for use with crude plasma membranes. The Flash Plate wells can contain a scintillant coating which also contains a specific antibody recognizing cAMP. The cAMP generated in the wells can be quantitated by a direct competition for binding of radioactive cAMP tracer to the cAMP antibody. The following serves as a brief protocol for the measurement of changes in cAMP levels in whole cells that express the receptors.
# (§2) Media is carefully aspirated off and discarded. 10 ml of PBS is gently added to each dish of cells followed by careful aspiration. 1 ml of Sigma cell dissociation buffer and 3 ml of PBS are added to each plate. Cells were pipetted off the plate and the cell suspension was collected into a 50 ml conical centrifuge tube. Cells were then centrifuged at room temperature at 1,100 rpm for 5 min. The cell pellet was carefully re-suspended into an appropriate volume of PBS (about 3 ml/plate). The cells were then counted using a hemocytometer and additional PBS was added to give the appropriate number of cells (with a final volume of about 50 μl/well).
# The cells were then added to the wells and incubated for 60 min at room temperature. 100 μl of Detection Mix containing tracer cAMP was then added to the wells. Plates were then incubated additional 2 hours followed by counting in a Wallac MicroBeta scintillation counter. Values of cAMP/well were then extrapolated from a standard cAMP curve which was contained within each assay plate.
# [1] = system: adipocyte primary cultures derived from human subcutaneous fat; experiment: Isoproterenol induced lipolysis in human primary adipocytes; format: cell-based; conditions: for EC50: read-out: EC50, inhibition of isoproterenol induced lipolysis
# Excerpt: Lipolysis assays were done following the isolation of adipocytes from rat or human. The source of fat from rats was the epididymal fat and from humans was either subcutaneous or omental. Cells were isolated following collagenase digestion and floatation. An elevation of intracellular cAMP levels and concomitant activation of lipolysis via hormone sensitive lipase was accomplished using isoproterenol, forskolin, 3-isobutyl-1-methyl-xanthine (IBMX) or a combination thereof at concentrations and times determined empirically and depending on the source of tissue. […] Data was analyzed using Excel and PrismGraph.
# hRUP19 [2] = target: T2, hRUP19 (Homo sapiens, UniProt Q9BXC0); experiment: Inhibition of forskolin stimulated cAMP in stable CHO cells (adenylyl cyclase assay); format: cell-based; design: The full length hRUP19 was cloned by PCR using primers; expressed in transfected cells; conditions: CHO cells expressing hRUP19
# Excerpt: as §1
# as §2, with “μl/well). […]” for “μl/well).”
# hRUP19 [3] = target: T2, hRUP19; conditions: HEK293 cells transfected with GqΔGi plus hRUP19
# [4] = system: rat epididymal fat derived adipocytes; conditions: concentration of 10 μM
# male Sprague Dawley rats = conditions: for plasma free fatty acids (FFA) level (in words): fasted rats, IP injection, 15 mg/kg, 30 mg/kg or 45 mg/kg, time course
# T1 sequence (P49019 whole entry K94N/T173P/F198L/H253R/I317M/I346M): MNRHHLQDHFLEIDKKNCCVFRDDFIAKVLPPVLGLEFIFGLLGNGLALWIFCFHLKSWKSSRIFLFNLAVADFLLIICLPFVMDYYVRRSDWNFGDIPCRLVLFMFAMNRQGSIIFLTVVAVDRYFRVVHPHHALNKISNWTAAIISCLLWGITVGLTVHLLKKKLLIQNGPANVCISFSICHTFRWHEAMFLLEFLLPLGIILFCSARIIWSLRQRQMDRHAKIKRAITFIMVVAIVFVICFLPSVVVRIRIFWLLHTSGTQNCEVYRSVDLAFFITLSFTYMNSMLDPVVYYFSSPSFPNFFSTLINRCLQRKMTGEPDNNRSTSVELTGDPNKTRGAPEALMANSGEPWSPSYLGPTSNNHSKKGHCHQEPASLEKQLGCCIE
# T2 sequence (Q9BXC0 whole entry): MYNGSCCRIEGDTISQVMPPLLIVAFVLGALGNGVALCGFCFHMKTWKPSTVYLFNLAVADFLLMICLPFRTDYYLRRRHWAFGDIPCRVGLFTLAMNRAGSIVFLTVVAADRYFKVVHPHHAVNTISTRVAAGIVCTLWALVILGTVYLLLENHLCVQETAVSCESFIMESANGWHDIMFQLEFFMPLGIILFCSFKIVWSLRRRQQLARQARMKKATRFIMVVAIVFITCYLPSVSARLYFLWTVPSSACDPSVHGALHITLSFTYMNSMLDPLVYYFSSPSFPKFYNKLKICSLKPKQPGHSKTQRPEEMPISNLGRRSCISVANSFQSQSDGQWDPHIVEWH
# Sequence of hRUP25 (Q8TDS4 whole entry): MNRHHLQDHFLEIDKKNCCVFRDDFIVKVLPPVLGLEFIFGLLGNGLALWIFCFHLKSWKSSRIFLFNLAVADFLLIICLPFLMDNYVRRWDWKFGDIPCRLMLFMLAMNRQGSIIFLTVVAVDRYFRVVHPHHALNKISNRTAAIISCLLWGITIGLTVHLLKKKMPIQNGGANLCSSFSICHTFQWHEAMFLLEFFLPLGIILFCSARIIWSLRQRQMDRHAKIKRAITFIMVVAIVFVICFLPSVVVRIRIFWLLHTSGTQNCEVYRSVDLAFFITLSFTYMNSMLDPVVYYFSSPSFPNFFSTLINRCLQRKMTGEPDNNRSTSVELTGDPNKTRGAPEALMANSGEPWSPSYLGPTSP
smiles,measurement,setting,value
CC(C)n1nnc2cc(C(=O)O)ccc21 [1-Isopropyl-1H-benzotriazole-5-carboxylic acid],inhibition of forskolin stimulated cAMP / agonist or not (in words),hRUP25,no effect
same,inhibition of forskolin stimulated cAMP / agonist or not (in words),hRUP38; hRUP38-expressing CHO cells,does and agonist for hRUP38
same,inhibition of isoproterenol stimulated lipolysis (in words),"[1]; isoproterenol 100 nM, primary human adipocytes",dose-dependant manner comparable to that of nicotinic acid; also recorded: dose-dependent manner comparable to that of nicotinic acid; also recorded: inhibit lipolysis
same,inhibition of forskolin stimulated cAMP / agonist or not (in words),hRUP19 [2],no effect
CCOc1ccc(Br)cc1C=CC(=O)O [3-(5-Bromo-2-ethoxy-phenyl)-acrylic acid],inhibition of forskolin stimulated cAMP / agonist or not (in words),hRUP25,no effect
same,EC50,hRUP38; hRUP38-expressing CHO cells,1170 nM
same,inhibition of forskolin stimulated cAMP / agonist or not (in words),hRUP38; hRUP38-expressing CHO cells,activates inhibition of forskolin stimulated cAMP; also recorded: agonist for RUP38
same,inhibition of forskolin stimulated cAMP / agonist or not (in words),hRUP19 [2],no effect
CCCc1nn(C)c(O)c1C(=O)c1cccnc1 [(5-Hydroxy-1-methyl-3-propyl-1H-pyrazol-4-yl)-pyridin-3-yl-methanone],inhibition of forskolin stimulated cAMP / agonist or not (in words),hRUP25,activates inhibition of forskolin stimulated cAMP
same,inhibition of forskolin stimulated cAMP / agonist or not (in words),hRUP25; listed as (5-Hydroxy-1-methyl-3-propyl-1H-pyrazol-4-yl)-pyridin-3-yl-methanone,agonist for RUP25
same,EC50,"hRUP25; hRUP25-expressing CHO cells (stable line #46 in FIG. 18B), read-out: EC50, inhibition of forskolin stimulated cAMP accumulation",0.352 µM
same,inhibition of forskolin stimulated cAMP / agonist or not (in words),hRUP38; hRUP38-expressing CHO cells,not for RUP38
same,activity on hRUP38-expressing CHO cells (in words),hRUP38; up to a concentration of at least 100 μM (not shown),no activity
"CN1CCC[C@H]1c1cccnc1 [(−)-nicotine, (−)-NICOTINE, reference compound]",EC50,hRUP25,9.8 µM
same,inhibition of forskolin stimulated cAMP / agonist or not (in words),hRUP25,agonist for RUP25
"c1cncc(-c2nn[nH]n2)c1 [P-3-T, 3-tetrazole-5-pyridine, reference compound]",EC50,[1]; adipocyte primary cultures derived from human subcutaneous fat,218 nM
"O=C(O)c1cccnc1 [nicotinic acid, Nicotinic acid]",inhibition of isoproterenol stimulated lipolysis (in words),[1],inhibit lipolysis
same,EC50,"[1]; Homo sapiens, Adipocyte",716 nM
same,inositol phosphates (IPs) accumulation / agonist or not (in words),hRUP19 [3],unresponsive
same,inositol phosphates (IPs) accumulation / agonist or not (in words),hRUP19 [3]; listed as Nicotinic acid,not for RUP38 or RUP19
same,inhibition of isoproterenol induced lipolysis (in words),[4],inhibiting isoproterenol induced lipolysis
same,"plasma FFA versus vehicle control after inhibition, rebound (in words)","male Sprague Dawley rats; 45 mg/kg IP, at 3 hr",rebound effect
same,plasma free fatty acids (FFA) level (in words),male Sprague Dawley rats,lower plasma free fatty acids
same,plasma free fatty acids (FFA) level (in words),male Sprague Dawley rats; listed as niacin,significantly decrease
